Test results from patent US20080045529A1, “Use Of Thienopyrimidines” (MERCK PATENT GMBH, priority 2003, published 2008).

Assays:
[1] = system: RAF; test: Inhibition of RAF; type: biochemical
[2] = target: TIE-2 (Homo sapiens, UniProt Q02763); test: Tie-2 kinase flashplate assay (phosphorylation of poly(Glu, Tyr) with 33P-ATP); type: biochemical; details: read-out: Inhibition of TIE-2 IC50
Protocol: The TIE-2 tests can be carried out, for example, analogously to the methods indicated in WO 02/44156.
The assay determines the inhibiting activity of the substances to be tested in the phosphorylation of the substrate poly(Glu, Tyr) by Tie-2 kinase in the presence of radioactive ^33P-ATP. The phosphorylated substrate binds to the surface of a “flashplate” microtitre plate during the incubation time. After removal of the reaction mixture, the microtitre plate is washed a number of times and the radioactivity on its surface is subsequently measured. An inhibiting effect of the substances to be measured results in lower radioactivity compared with an undisturbed enzymatic reaction.

Chain of TIE-2 (Q02763 23-1124, species assumed): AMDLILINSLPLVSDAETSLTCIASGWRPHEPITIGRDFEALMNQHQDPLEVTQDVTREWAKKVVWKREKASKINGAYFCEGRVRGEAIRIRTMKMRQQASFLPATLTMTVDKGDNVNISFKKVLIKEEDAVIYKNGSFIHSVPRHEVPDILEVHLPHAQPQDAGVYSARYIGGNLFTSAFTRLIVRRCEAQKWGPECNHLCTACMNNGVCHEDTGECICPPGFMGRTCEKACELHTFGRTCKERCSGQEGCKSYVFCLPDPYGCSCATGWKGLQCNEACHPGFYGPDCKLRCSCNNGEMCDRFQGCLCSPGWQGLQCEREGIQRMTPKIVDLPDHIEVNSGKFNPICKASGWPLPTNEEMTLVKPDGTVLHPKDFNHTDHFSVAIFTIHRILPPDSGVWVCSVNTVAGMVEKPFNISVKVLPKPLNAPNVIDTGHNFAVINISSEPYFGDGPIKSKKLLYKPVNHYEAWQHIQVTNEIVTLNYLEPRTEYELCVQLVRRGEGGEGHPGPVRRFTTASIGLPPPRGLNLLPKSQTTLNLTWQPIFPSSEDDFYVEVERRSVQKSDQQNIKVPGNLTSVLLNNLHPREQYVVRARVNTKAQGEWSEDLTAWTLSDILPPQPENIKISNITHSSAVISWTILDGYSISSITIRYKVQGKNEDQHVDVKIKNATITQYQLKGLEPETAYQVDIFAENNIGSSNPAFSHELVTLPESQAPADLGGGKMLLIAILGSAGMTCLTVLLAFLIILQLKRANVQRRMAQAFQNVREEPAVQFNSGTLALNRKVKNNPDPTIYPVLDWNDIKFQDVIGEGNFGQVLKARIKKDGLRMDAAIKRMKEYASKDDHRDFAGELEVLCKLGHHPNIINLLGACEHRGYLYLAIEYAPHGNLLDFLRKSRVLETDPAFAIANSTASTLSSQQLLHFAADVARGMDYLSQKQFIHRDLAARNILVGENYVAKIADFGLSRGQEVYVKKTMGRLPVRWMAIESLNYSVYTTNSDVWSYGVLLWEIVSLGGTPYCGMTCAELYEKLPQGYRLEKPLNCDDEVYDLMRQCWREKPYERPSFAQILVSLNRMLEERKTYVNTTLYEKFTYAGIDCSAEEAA

| Structure (SMILES) | IC50 [1] | other results |
| --- | --- | --- |
| Cc1sc2nc(N3CCOCC3)nc(NCc3ccc4c(c3)OCO4)c2c1C | 5.3 µM |  |
| Cc1cc2c(NCc3ccc4c(c3)OCO4)nc(-n3ccnc3)nc2s1 [Example 2, 2-(imidazol-1-yl)-6-methyl-4-(3,4-methylenedioxybenzylamino)thieno[2,3-d]pyrimidine] |  | melting point: 248 to 250 °C |
| c1cc2c(cc1CNc1nc(N3CCOCC3)nc3sc4c(c13)CCCC4)OCO2 | 4.3 µM |  |
| c1cnn(-c2nc(NCc3ccc4c(c3)OCO4)c3c4c(sc3n2)CCCC4)c1 |  | IC50 [2]: 0.15 µM |
